Structures can show the parent of a compound that is named as a salt. Where two headings read alike, the source gives them in different places.
Experiments:
SUV39H2 [1] = target: T1, SUV39H2 (Homo sapiens (Human), UniProt Q9H5I1); assay: biochemical; type: biochemical; conditions: 3H-SAM 100 nM, H3 Histone Peptide 350 nM, room temperature 3 hours
Method: Assay buffer (4 μL) was added into all the wells, including test compound and control wells (except for Sinefungin control wells), using the Multidrop Combi. The plate was centrifuged at 1000 rpm for 1 min. […] SUV39H2 (8 μL, final conc: optimized for each lot of the enzyme based on specific activity) was added by using the Multidrop Combi. The assay plate was centrifuged at 1000 rpm for 1 min. Assay buffer was used as background control, and incubated at room temperature for 3 hours. The reaction was stopped with 20 μL of 2.5 mg/mL Streptavidin SPA beads (final conc. 50 μg/well) in buffer using the Multidrop Combi and centrifuged for 1 min. The plate was loaded into the Trilux-Microbeta counter and a delayed read of 10 hours was made. The radioactive signal was measured at 1 min/well. Sinefungin and the internal standard compound were used as tool compounds to determine assay performance.
• The following calculations were made using the obtained CPM raw data: Software used: XLFit from IDBS.
For each test plate the following results were calculated: • Average, Standard Deviation, and % CV of Background Controls • Average, Standard Deviation, and % CV of Positive Controls • Z′ value of the plate • IC50 values of standard and test compounds (in nM) • R^2 value of fitted concentration response curve • Hill slope coefficient of fitted concentration response curve • Signal to Noise Ratio

A549 = assay: Cell-based assay, anti-proliferative activity (Cell Counting Kit-8, 72 hours)
Summary of the method: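 Seed cells in 96-well format; add inhibitors; measure growth by CCK-8 at end of exposure; derive IC50.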

CCD-18Co = assay: as above; conditions: read-out: IC50 (μM) CCD-18Co
Summary of the method: (§1)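 Seed cells in 96-well plates; add serially diluted inhibitor (1.5625 to 100 micro-M plus vehicle); incubate 72 hours; quantify viable growth by CCK-8 and calculate IC50.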

HCT-116 = assay: as above; conditions: read-out: IC50 (μM) HCT-116
Summary of the method: as §1

HFL1 = assay: as above; conditions: read-out: IC50 (μM) HFL1
Summary of the method: as §1

PC14 = assay: as above; conditions: read-out: IC50 (μM) PC14
Summary of the method: as §1

SUV39H2 [2] = target: T1, SUV39H2; conditions: read-out: IC50 (μM) Suv 39H2 assay
[3] = Homo sapiens, A549 cells, 72 hours exposure, Cell Counting Kit-8, read-out: A549 IC50
[4] = Homo sapiens, A549 cells, 72 hours, Cell Counting Kit-8, read-out: IC50 (μM) A549
[5] = Homo sapiens, CCD-18Co cells, 72 hours, Cell Counting Kit-8
[6] = Homo sapiens, HCT-116 cells, 72 hours, Cell Counting Kit-8
[7] = Homo sapiens, HFL1 cells, 72 hours, Cell Counting Kit-8
[8] = Homo sapiens, PC-14, PC14 cells, 72 hours, Cell Counting Kit-8
[9] = Homo sapiens, A549, 72 h, read-out: IC50 (μM) A549
[10] = Homo sapiens, A549 cells, Cell Counting Kit-8, 72 hours, read-out: IC50 (μM) A549
[11] = Homo sapiens, CCD-18Co cells, Cell Counting Kit-8, 72 hours
[12] = Homo sapiens, HCT-116 cells, Cell Counting Kit-8, 72 hours
[13] = Homo sapiens, HFL1 cells, Cell Counting Kit-8, 72 hours
[14] = Homo sapiens, PC-14, PC14 cells, Cell Counting Kit-8, 72 hours

T1 sequence (Q9H5I1 whole entry): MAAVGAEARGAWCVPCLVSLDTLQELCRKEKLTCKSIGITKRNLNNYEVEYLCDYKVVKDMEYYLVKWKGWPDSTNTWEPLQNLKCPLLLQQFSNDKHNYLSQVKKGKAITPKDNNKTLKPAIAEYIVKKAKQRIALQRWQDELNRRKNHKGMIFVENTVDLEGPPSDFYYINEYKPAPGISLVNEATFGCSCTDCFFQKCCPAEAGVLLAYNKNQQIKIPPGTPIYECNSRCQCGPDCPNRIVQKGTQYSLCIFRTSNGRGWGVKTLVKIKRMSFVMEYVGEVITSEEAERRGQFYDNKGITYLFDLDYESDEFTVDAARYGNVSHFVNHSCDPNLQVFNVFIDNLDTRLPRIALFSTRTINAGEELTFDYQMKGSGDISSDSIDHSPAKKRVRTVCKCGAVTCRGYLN

`COc1cc(OC)c(-c2cn3ccc(N4CCC(CNC(=O)OC(C)(C)C)C4)cc3n2)cc1Cl` (centres unmarked) [Example 459, tert-butyl ((1-(2-(5-chloro-2,4-dimethoxyphenyl)imidazo[1,2-a]pyridin-7-yl)pyrrolidin-3-yl)methyl)carbamate] was tested, and the IC50 (SUV39H2 [1]) was 7.69 nM and the IC50 (A549; [3]) was 0.99 µM.
With `COc1cc(OC)c(-c2cn3ccc(N4C[C@H](NCc5ccncc5)[C@@H](O)C4)cc3n2)cc1Cl` (relative stereo) [Example 439, trans-1-(2-(5-chloro-2,4-dimethoxyphenyl)imidazo[1,2-a]pyridin-7-yl)-4-((pyridin-4-ylmethyl)amino)pyrrolidin-3-ol] the IC50 (SUV39H2 [1]) was 6.76 nM and the IC50 (A549; [3]) was 10 µM.
`COc1cc(OC)c(-c2cn3ccc(N4CCN(c5cc(N6CCCC6)nc(N)n5)CC4)cc3n2)cc1Cl` [Example 385, 4-(4-(2-(5-chloro-2,4-dimethoxyphenyl)imidazo[1,2-a]pyridin-7-yl)piperazin-1-yl)-6-(pyrrolidin-1-yl)pyrimidin-2-amine] was tested, and the IC50 (SUV39H2 [1]) was 38 nM and the IC50 (A549; [3]) was 0.66 µM.
With `COc1cc(OC)c(-c2cn3ccc(N4CCN(Cc5ccncc5F)CC4)cc3n2)cc1Cl` [Example 336, 2-(5-chloro-2,4-dimethoxyphenyl)-7-(4-((3-fluoropyridin-4-yl)methyl)piperazin-1-yl)imidazo[1,2-a]pyridine] the IC50 (SUV39H2 [1]) was 16.1 nM and the IC50 (A549; [3]) was 0.97 µM.
Compound `COc1cc(OC)c(-c2cn3ccc(N4CCN(c5cnc(N6CCC(NS(=O)(=O)C7CC7)CC6)nc5)CC4)cc3n2)cc1Cl` [Example 393, N-(1-(5-(4-(2-(5-chloro-2,4-dimethoxyphenyl)imidazo[1,2-a]pyridin-7-yl)piperazin-1-yl)pyrimidin-2-yl)piperidin-4-yl)cyclopropanesulfonamide] has an IC50 (SUV39H2 [1]) of 28.3 nM.
In the case of `COc1cc(OC)c(-c2cn3ccc(N[C@H]4CC[C@@H](N(C)Cc5ccccc5F)CC4)cc3n2)cc1Cl` [Example 347, bis(2,2,2-trifluoroacetate)], the IC50 (SUV39H2 [1]) is reported as 24.8 nM.
With `COc1cc(OC)c(-c2cn3ccc(N[C@H]4C[C@H]5CC[C@@H](C4)N5CC4CCCCC4)cc3n2)cc1Cl` [Example 434, 2-(5-chloro-2,4-dimethoxyphenyl)-N-((1R,3r,5S)-8-(cyclohexylmethyl)-8-azabicyclo[3.2.1]octan-3-yl)imidazo[1,2-a]pyridin-7-amine] the IC50 (SUV39H2 [1]) was 88.7 nM.
Work on `COc1cc(OC)c(-c2cn3ccc(N4CCN(Cc5cncc(C#N)c5)CC4)cc3n2)cc1Cl` [Example 339, 5-((4-(2-(5-chloro-2,4-dimethoxyphenyl)imidazo[1,2-a]pyridin-7-yl)piperazin-1-yl)methyl)nicotinonitrile] yielded an IC50 (SUV39H2 [1]) of 35.7 nM.
In the case of `COc1cc(OC)c(-c2cn3ccc(N4CCN(c5ccnc(NCCO)n5)CC4)cc3n2)cc1Cl` [Example 334, 2-((4-(4-(2-(5-chloro-2,4-dimethoxyphenyl)imidazo[1,2-a]pyridin-7-yl)piperazin-1-yl)pyrimidin-2-yl)amino)ethanol], the IC50 (SUV39H2 [1]) is reported as 21.3 nM.
Work on “1-(4-(2-(5-chloro-2-(3-(dimethylamino)propoxy)-4-methoxyphenyl)-imidazo[1,2-a]pyridin-7-yl)piperazin-1-yl)-2,2-dimethylpropan-1-one [Example 154]” yielded an IC50 (A549; A549 cells, Cell Counting Kit-8, 72 hours, read-out: IC50 (μM) A549) of 6.9 µM, an IC50 (CCD-18Co; CCD-18Co cells, Cell Counting Kit-8, 72 hours) of 8.7 µM and an IC50 (HCT-116; HCT-116 cells, Cell Counting Kit-8, 72 hours) of 7.9 µM. It also gave an IC50 (HFL1; HFL1 cells, Cell Counting Kit-8, 72 hours) of 4.3 µM, an IC50 (PC14; PC14 cells, Cell Counting Kit-8, 72 hours) of 8 µM and an IC50 (SUV39H2 [2]; enzyme assay) of 0.0135 µM.
`COc1cc(OC)c(-c2cn3ccc(N[C@H]4CC[C@@H](N(C)Cc5ccc(F)cc5)CC4)cc3n2)cc1Cl` [Example 342] showed an IC50 (SUV39H2 [1]) of 38.8 nM.
In the case of `COc1cc(OC)c(-c2cn3ccc(-c4ccc(C(=O)NCCCN)cc4)cc3n2)cc1Cl` [Example 265, N-(3-aminopropyl)-4-(2-(5-chloro-2,4-dimethoxyphenyl)imidazo-[1,2-a]pyridin-7-yl)benzamide], the IC50 (A549; [4]) is reported as 5.5 µM, the IC50 (CCD-18Co; [5]) is reported as 7.3 µM and the IC50 (HCT-116; [6]) is reported as 5.2 µM. The IC50 (HFL1; [7]) was 4.7 µM, the IC50 (PC14; [8]) was 4.2 µM and the IC50 (SUV39H2 [2]; enzyme assay) was 0.036 µM.
Compound `COc1cc(OC)c(-c2cn3ccc(N4CC[C@H](NCc5ccccn5)C4)cc3n2)cc1Cl` [Example 299, (S)-1-(2-(5-chloro-2,4-dimethoxyphenyl)imidazo[1,2-a]pyridin-7-yl)-N-(pyridin-2-ylmethyl)pyrrolidin-3-amine] has an IC50 (A549; [4]) of 5.3 µM, an IC50 (CCD-18Co; [5]) of 5.5 µM and an IC50 (HCT-116; [6]) of 4.5 µM. It also gave an IC50 (HFL1; [7]) of 6.2 µM, an IC50 (PC14; [8]) of 3.5 µM and an IC50 (SUV39H2 [2]; enzyme assay) of 0.00721 µM.
Compound `COc1cc(C)c(Cl)cc1-c1cn2ccc(N3CCNCC3)cc2n1` [Example 228, 2-(5-chloro-2-methoxy-4-methylphenyl)-7-(piperazin-1-yl)imidazo[1,2-a]pyridine hydrochloride] has an IC50 (A549; [9]) of 2.8 µM, an IC50 (CCD-18Co; Homo sapiens, CCD-18Co, 72 h) of 2.6 µM and an IC50 (HCT-116; Homo sapiens, HCT-116, 72 h) of 2 µM. The IC50 (HFL1; Homo sapiens, HFL1, 72 h) was 1.6 µM, the IC50 (PC14; Homo sapiens, PC-14, 72 h) was 2.3 µM and the IC50 (SUV39H2 [2]) was 0.033 µM.
With `COc1cc(OC)c(-c2cn3ccc(NC(=O)CCN)cc3n2)cc1Cl` [Example 168, 3-amino-N-[2-(5-chloro-2,4-dimethoxyphenyl)imidazo[1,2-a]pyridin-7-yl]-propanamide] the IC50 (A549; [10]) was 39 µM, the IC50 (CCD-18Co; [11]) was 9.5 µM and the IC50 (HCT-116; [12]) was 1.4 µM. For the same compound, the IC50 (HFL1; [13]) was 2.7 µM, the IC50 (PC14; [14]) was 6.2 µM and the IC50 (SUV39H2 [2]; enzyme assay) was 0.0283 µM.
`CCCCCNC1CCN(c2ccn3cc(-c4cc(Cl)c(OC)cc4OCCCN(C)C)nc3c2)CC1` [Example 165, 1-(2-{5-chloro-2-[3-(dimethylamino)propoxy]-4-methoxyphenyl}imidazo-[1,2-a]pyridin-7-yl)-N-pentylpiperidin-4-amine] gave an IC50 (A549; [10]) of 2.2 µM, an IC50 (CCD-18Co; [11]) of 2.1 µM and an IC50 (HCT-116; [12]) of 1.7 µM. The IC50 (HFL1; [13]) was 1.7 µM, the IC50 (PC14; [14]) was 2.2 µM and the IC50 (SUV39H2 [2]; enzyme assay) was 0.0593 µM.
In the case of `COc1cc(C)c(Cl)cc1-c1cn2ccc(N3CCN(S(=O)(=O)C4CC4)CC3)cc2n1` [Example 229, 2-(5-chloro-2-methoxy-4-methylphenyl)-7-(4-(cyclopropylsulfonyl)-piperazin-1-yl)imidazo[1,2-a]pyridine], the IC50 (A549; [4]) is reported as 1.9 µM, the IC50 (CCD-18Co; [5]) is reported as 3.8 µM and the IC50 (HCT-116; [6]) is reported as 2.1 µM. It also gave an IC50 (HFL1; [7]) of 2.3 µM, an IC50 (PC14; [8]) of 0.8 µM and an IC50 (SUV39H2 [2]; enzyme assay) of 0.0775 µM.
In the case of `CCS(=O)(=O)N1CCCN(c2ccn3cc(-c4cc(Cl)c(OC)cc4OCCCN(C)C)nc3c2)CC1` [Example 215, 3-(4-chloro-2-(7-(4-(ethylsulfonyl)-1,4-diazepan-1-yl)imidazo[1,2-a]pyridin-2-yl)-5-methoxyphenoxy)-N,N-dimethylpropan-1-amine], the IC50 (A549; [4]) is reported as 10 µM, the IC50 (CCD-18Co; [5]) is reported as 7.4 µM and the IC50 (HCT-116; [6]) is reported as 10 µM. For the same compound, the IC50 (HFL1; [7]) was 6.4 µM, the IC50 (PC14; [8]) was 6.5 µM and the IC50 (SUV39H2 [2]; enzyme assay) was 0.0135 µM.
`COc1cc(OCSC)c(-c2cn3ccc(N4CCN(S(=O)(=O)C5CC5)CC4)cc3n2)cc1Cl` [Example 255, 2-(5-chloro-4-methoxy-2-((methylthio)methoxy)phenyl)-7-(4-(cyclopropylsulfonyl)piperazin-1-yl)imidazo[1,2-a]pyridine] gave an IC50 (A549; [4]) of 2.5 µM, an IC50 (CCD-18Co; [5]) of 1.9 µM and an IC50 (HCT-116; [6]) of 2.3 µM. The IC50 (HFL1; [7]) was 1.7 µM, the IC50 (PC14; [8]) was 1.5 µM and the IC50 (SUV39H2 [2]; enzyme assay) was 0.00672 µM.
`COc1cc(OC)c(-c2cn3ccc(NC(=O)[C@H](C(C)C)N(C)C)cc3n2)cc1Cl` [Example 272, (S)—N-(2-(5-chloro-2,4-dimethoxyphenyl)imidazo[1,2-a]pyridin-7-yl)-2-(dimethylamino)-3-methylbutanamide] showed an IC50 (A549; [9]) of 0.86 µM, an IC50 (CCD-18Co; Homo sapiens, CCD-18Co, 72 h) of 0.47 µM and an IC50 (HCT-116; Homo sapiens, HCT-116, 72 h) of 2.9 µM. For the same compound, the IC50 (HFL1; Homo sapiens, HFL1, 72 h) was 0.45 µM, the IC50 (PC14; Homo sapiens, PC-14, 72 h) was 0.98 µM and the IC50 (SUV39H2 [2]; enzyme assay) was 0.0961 µM.

— patent publication US10508109B2 (priority 2015, dated 2019)
